Data taken from paper PMC3345832, “EROD and MROD as Markers of Cytochrome P450 1A Activities in Hepatic Microsomes from Entire and Castrated Male Pigs” (Sensors (Basel, Switzerland), 2009).
pKi: −log10 of the molar value. Like-named read-outs stand apart in the source and are kept apart here. One block for each compound: values may come before it.

What was measured:
[1] = tested on: porcine liver microsomes (MROD); conditions: 95% confidence interval
[2] = tested on: porcine liver microsomes (MROD); conditions: cited from earlier work
[3] = tested on: porcine liver microsomes (EROD); parameters: method as in Messina et al. [6]; conditions: ref Messina et al. [6]; cited from earlier work
[4] = tested on: EROD activity (7-ethoxyresorufin O-deethylation); experiment: Enzyme kinetics of resorufin formation from 7-ethoxyresorufin (EROD) in hepatic microsomes; type: in vitro ADME, pig; conditions: male, pig, 95% confidence interval
[5] = tested on: porcine liver microsomes (EROD); experiment: as above; type: in vitro ADME, pig; conditions: 95% confidence interval
[6] = tested on: EROD activities in porcine liver microsomes (CYP1A); conditions: for Ki, EROD: substrate 0.25 to 2 µM; for EROD activity, % of the control values: 20 μM inhibitor, microsomes from entire and castrated male pigs
[7] = tested on: CYP1A (MROD activity); experiment: in vitro; conditions: male, pig, pH 7.4, Ki
[8] = tested on: MROD activities in porcine liver microsomes (CYP1A)
[9] = tested on: CYP1A (EROD activity); experiment: in vitro; conditions: male, pig, substrate 0.25 to 2 µM
[10] = Stability of resorufin in incubation supernatants; type: physicochemical
Procedure: The stability was assessed by measuring resorufin in the supernatant (n=8) stored in +4 °C and protected from light for several days and measured at days 0, 1, 2, 3, 5 and 8. A pool of microsomes used for the stability study was previously used for study on linearity with microsomal protein. Resorufin concentrations in those samples varied from 0.9 to 8.1 pmol/mL. Stability of resorufin stored in room temperature was assessed using four samples with resorufin concentrations from 1.5 to 2.6 pmol/mL.

[11] = microsomes from castrated pigs, substrate 0.25 to 2 µM
[12] = microsomes from entire male pigs, substrate 0.25 to 2 µM
[13] = 20 μM inhibitor, microsomes from entire and castrated male pigs

Vmax (CI), MROD ([1]; castrated male pigs): 2.6 (2.5 – 2.8) pmol/min/mg | Vmax (CI), MROD ([1]; entire male pigs): 0.8 (0.7 – 0.9) pmol/min/mg
SMILES: COc1ccc2nc3ccc(=O)cc-3oc2c1 [7-methoxyresorufin]
Km [2]: 2.2 µM

Km at 5 min ([4]; liver microsomes (pool 1, six entire male pigs), pH 7.4, entire male pigs, read-out: Km (CI), EROD high-affinity component): 0.01 µM | Km at 5 min ([4]; liver microsomes (pool 1, six entire male pigs), pH 7.4, entire male pigs, read-out: Km (CI), EROD low-affinity component): 0.54 µM | Km at 5 min ([4]; liver microsomes (pool 2, six castrated male pigs), pH 7.4, castrated male pigs, read-out: Km (CI), EROD high-affinity component): 0.01 µM | Km at 5 min ([4]; liver microsomes (pool 2, six castrated male pigs), pH 7.4, castrated male pigs, read-out: Km (CI), EROD low-affinity component): 1.25 µM | Vmax (CI), EROD high-affinity component ([5]; castrated male pigs): 7.3 (5.5 – 9.0) pmol/min/mg | Vmax (CI), EROD low-affinity component ([5]; castrated male pigs): 15.2 (12.9 – 17.6) pmol/min/mg | Vmax (CI), EROD high-affinity component ([5]; entire male pigs): 5.9 (3.1 – 8.6) pmol/min/mg | Vmax (CI), EROD low-affinity component ([5]; entire male pigs): 11.7 (9.6 – 13.8) pmol/min/mg
SMILES: CCOc1ccc2nc3ccc(=O)cc-3oc2c1 [7-ethoxyresorufin]
Km [3]: 0.64 µM

SMILES: Cc1nc2c([nH]1)c(=O)n(C)c(=O)n2Cc1ccco1 [Furafylline, furafylline]
Effect on EROD activities ([6]; 10-100 μM, pre-incubated with microsomes and NADPH): did not affect EROD activities | Ki, EROD ([6]; microsomes from castrated pigs): no ^* | Ki, EROD ([6]; microsomes from entire male pigs): no ^* | Ki at 5 min [7, 11]: […] | Ki at 5 min [7, 12]: […] | MROD activity, % of the control values ([8]; 100 μM inhibitor, pre-incubated 10 min with NADPH, entire and castrated male pigs): 55–61% | Inhibition of MROD activity without pre-incubation ([8]; no pre-incubation of microsomes and inhibitor with NADPH (data not shown)): No inhibition

EROD activity, % of the control values [6]: 19–23% | Ki at 5 min [7]: 14 nM | Ki at 5 min ([9]; liver microsomes (pool 1, six entire male pigs), pH 7.4, probe 7-ethoxyresorufin, 0.25 to 2 µM, Ki, microsomes from entire male pigs): 31 nM | Ki at 5 min ([9]; liver microsomes (pool 2, six castrated male pigs), pH 7.4, probe 7-ethoxyresorufin, 0.25 to 2 µM, Ki, microsomes from castrated pigs): 96 nM | MROD activity, % of the control values [8, 13]: 30% | pKi ([8]; male, pig, 5 min, pH 7.4): 7.74
SMILES: O=c1cc(-c2ccccc2)oc2c1ccc1ccccc12 [ANF, α-naphthoflavone]

SMILES: Cc1c2ccncc2c(C)c2c1[nH]c1ccccc12 [Ellipticine, ellipticine]
EROD activity, % of the control values [6]: 8–10% | Ki at 5 min [7, 11]: 19 nM | Ki at 5 min [7, 12]: 24 nM | Ki at 5 min ([9]; pH 7.4, Ki, microsomes from castrated pigs): 21 nM | Ki at 5 min ([9]; pH 7.4, Ki, microsomes from entire male pigs): 17 nM | MROD activity, % of the control values [8, 13]: 14–16%

Time stable in supernatants ([10]; stored at 4 °C under dark conditions): at least 5 days | Time stable in supernatants ([10]; stored at room temperature): at least 1 day
SMILES: O=c1ccc2nc3ccc(O)cc3oc-2c1 [Resorufin]
